{"source": "patent US8961970B2", "about": "“Combination therapy” (Novartis AG, priority 2012, dated 2015)", "key": {"[1]": {"test_system": "AsPC-1 cells", "experiment": "Cell proliferation / viability assay (CellTiter-Glo, dose matrix) in AsPC-1 cells", "format": "cell-based", "protocol": "(§1) A cell proliferation assay was performed to investigate the activity of the combination of COMPOUND A and ANTIBODY A on Insulin-like Growth Factor 1 (IGF1)-induced proliferation of the KRAS mutant cell lines Miapaca-2 and AsPC-1. To evaluate the combination effect in a non-biased way, and to identify synergistic effects at different concentrations, the study was conducted using a “dose matrix” scheme (described in detail below).\n(§2) COMPOUND A (10 mM) was stored in aliquots at −20° C. ANTIBODY A (0.2 mM in 1% BSA) was stored in aliquots at 4° C. Insulin-like Growth Factor-1 (IGF1; R&D System, Cat #291-G1) was reconstituted at 100 ug/mL in sterile Phosphate Buffered Saline (PBS).\n(§3) The KRAS mutant, pancreatic cancer cell lines Miapaca-2 and AsPC-1 were cultured in DMEM medium (ATCC Cat #30-2002) and RPMI-1640 (ATCC Cat #30-2001) plus 10% Fetal Bovine Serum (FBS; Invitrogen Cat #10099-141) as recommended by the supplier. Cells were cultured in T-150 flasks using standard cell culture techniques and split upon reaching 80% confluency. TryPLE Express (Invitrogen #12604-013, no phenal red) was used for all cell dissociation. Cell count and viability were measured using Trypan dye exclusion with a ViCell counter (Beckman-Coulture). Cells were determined to be free of Mycoplasma using a PCR detection method (www.radil.missouri.edu). […]"}, "[2]": {"test_system": "Miapaca-2 cells", "experiment": "Cell proliferation / viability assay (CellTiter-Glo, dose matrix) in Miapaca-2 cells", "format": "cell-based", "protocol": "as §1, §2, §3"}}}
{"smiles": "Cn1cnc2c(F)c(Nc3ccc(Br)cc3F)c(C(=O)NOCCO)cc21", "note": "[COMPOUND A, 6-(4-bromo-2-fluorophenylamino)-7-fluoro-3-methyl-3H-benzoimidazole-5-carboxylic acid (2-hydroxyethyoxy)-amide]", "values": [{"measurement": "single agent anti-proliferative activity", "setting": "[1]; AsPC-1, KRAS mutant pancreatic cancer cell line, 120 hours incubation, presence and absence of IGF1 (100 ng/ml)", "value": "concentration dependent anti-proliferative activity"}, {"measurement": "effect of addition of IGF1 on single agent activity", "setting": "[1]; AsPC-1, with versus without IGF1", "value": "slightly dampen"}, {"measurement": "single agent anti-proliferative activity", "setting": "[2]; Miapaca-2, KRAS mutant pancreatic cancer cell line, 120 hours incubation, presence and absence of IGF1 (100 ng/ml)", "value": "concentration dependent anti-proliferative activity"}, {"measurement": "effect of addition of IGF1 on single agent activity", "setting": "[2]; Miapaca-2, with versus without IGF1", "value": "slightly dampen"}]}
